Measured values from publication PMC6013774 (Chemical Science, 2016).

Molecular target: T1, AhbD (Methanosarcina barkeri, UniProt Q46CH7)
T1 sequence (Q46CH7 1-349): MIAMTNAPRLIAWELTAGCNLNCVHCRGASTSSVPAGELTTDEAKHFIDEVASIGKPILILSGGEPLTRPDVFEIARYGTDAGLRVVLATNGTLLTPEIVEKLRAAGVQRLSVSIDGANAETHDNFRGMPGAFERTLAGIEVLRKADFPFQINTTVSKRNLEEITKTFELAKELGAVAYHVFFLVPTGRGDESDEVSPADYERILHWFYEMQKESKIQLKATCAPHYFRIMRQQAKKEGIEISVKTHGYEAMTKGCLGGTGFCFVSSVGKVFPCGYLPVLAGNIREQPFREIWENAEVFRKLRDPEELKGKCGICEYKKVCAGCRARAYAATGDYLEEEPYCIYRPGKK
Assay: tryptophan fluorescence quenching
Format: binding

Kd: 33.9 ± 3.9 µM
SMILES: CC1=C(CCC(=O)O)c2cc3nc(cc4[nH]c(cc5[nH]c(cc1n2)c(C)c5CCC(=O)O)c(CCC(=O)O)c4C)C(CCC(=O)O)=C3C [COPRO III]
